pIC50: −log10 of the molar value.
Columns and labels:
P2X3 [1] = target: T1, P2X3 (Homo sapiens, UniProt P56373); assay: Inhibition on the P2X3-mediated current in 1321N1 cell line stably transfected with P2X3 (whole-cell patch clamp); format: cell-based; details: 1321N1 P2X3 stable transfected cells, clamping potential -60 mV, 5 minutes pre-treatment, Hill equation fit; read-out: IC50, inhibition of P2X3-mediated current induced by 10 μM Na2ATP
T1 construct: expressed in transfected cells; host or cells: 1321N1 cells, stably transfected
T1 sequence (P56373 1-397): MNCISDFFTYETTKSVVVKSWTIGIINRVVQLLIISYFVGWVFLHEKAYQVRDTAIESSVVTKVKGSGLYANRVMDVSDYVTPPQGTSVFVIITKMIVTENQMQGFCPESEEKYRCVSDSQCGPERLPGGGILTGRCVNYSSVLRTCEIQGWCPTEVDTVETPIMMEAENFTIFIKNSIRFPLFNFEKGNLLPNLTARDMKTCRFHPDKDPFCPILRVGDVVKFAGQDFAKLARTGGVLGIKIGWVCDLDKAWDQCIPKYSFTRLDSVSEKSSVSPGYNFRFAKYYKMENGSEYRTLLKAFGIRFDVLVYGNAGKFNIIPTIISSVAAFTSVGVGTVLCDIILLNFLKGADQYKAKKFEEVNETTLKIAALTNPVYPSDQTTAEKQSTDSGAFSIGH
Description: Membrane current was recorded by employing HEKA EPC-10 patch clamp amplifier and PATCHMASTER acquisition system. 1321N1 P2X3 stable transfected cells were transferred to an about 1 ml bath embedded in an inverted microscope platform, and an extracellular fluid (2 mM CaCl2, 1 mM MgCl2, 5 mM KCl, 155 mM NaCl, 12 mM glucose and 10 mM HEPES (pH=7.4)) was perfused by using a gravitational perfusion system. The P2X3-mediated current of a single cell was recorded in a whole cell recording mode. After formation of a gigaseal and rapture of the membrane, clamping potential was set at −60 mV. 10 μM Na2ATP was perfused for 5 seconds, and the P2X3-mediated current induced at this point was taken as a control current. The cells were then treated with a solution of compound 66 at a specific concentration (prepared with the extracellular fluid) for 5 minutes. The solution of compound 66 at this concentration and 10 μM Na2ATP were co-applied to induce a cell current (see FIG. 4 for the effect of the compound on the current), and an inhibition rate relative to the control current was calculated according to the following formula:
(§1) Inhibition Rate Relative to the Control Current=(1−I2/I1)*100%
(§2) wherein I1 represents the control current, and I2 represents the current after application of compound 66. […]

[2] = tested on: Dunkin-Hartley guinea pigs; assay: Effect on the guinea pig cough model (ATP or histamine plus citric acid induced cough); format: in vivo; details: oral administration 30 minutes to 1 hour before inducing cough, 250 uM ATP or 0.6 mM histamine then 0.5 M citric acid nebulized, FIG. 1 to FIG. 3 (doses 5.1-92 mg/kg)
Description: In this test, dextromethorphan (purchased from Shanghai Send Pharmaceutical Technology Co., Ltd.) was used as a positive control compound. A clinical control compound having the following structure was employed, and it was prepared according to the method described in WO 2008/040652 A1:
Test animals were 300-350 g Dunkin-Hartley guinea pigs (purchased from Shanghai Jiagan Biotechnology Co., Ltd). After being purchased and adaptively fed for one week, the animals were randomly divided into groups based on body weight, each test group comprising 10-15 test animals The vehicle (a 0.5% CMCNa solution), the test compounds, the positive control compound (dextromethorphan) or the clinical control compound were orally administrated (compounds at test dosages were respectively added to a 0.5% CMCNa solution, uniformly dispersed through thorough ultrasonic treatment; the solution was vortex mixed again before administration to each animal, and the test dosage ranged from 1 mg/kg to 100 mg/kg). Administration was performed 30 minutes to 1 hour before inducing cough.
Method of inducing cough: test animals were put in a body pneumotachograph (Buxco) and allowed to stand for several minutes. […] Starting from the nebulization of citric acid, the number of coughs of the animals in 10 minutes were recorded by employing a small animal pulmonary function detector (Buxco).

P2X3 [3] = target: T2, P2X3 (Rattus norvegicus, UniProt P49654); assay: Inhibition on the P2X3-mediated current in ex vivo cultured rat dorsal root ganglion (whole-cell patch clamp); format: cell-based; details: primary cells of rat DRG, clamping potential -60 mV, 5 minutes pre-treatment, Hill equation fit; read-out: IC50, inhibition of P2X3-mediated current induced by 30 μM a,b-Me ATP
T2 construct: The primary cells of rat DRG were transferred; endogenous in cells; host or cells: primary rat dorsal root ganglion cells, cultured ex vivo
T2 sequence (P49654 1-397): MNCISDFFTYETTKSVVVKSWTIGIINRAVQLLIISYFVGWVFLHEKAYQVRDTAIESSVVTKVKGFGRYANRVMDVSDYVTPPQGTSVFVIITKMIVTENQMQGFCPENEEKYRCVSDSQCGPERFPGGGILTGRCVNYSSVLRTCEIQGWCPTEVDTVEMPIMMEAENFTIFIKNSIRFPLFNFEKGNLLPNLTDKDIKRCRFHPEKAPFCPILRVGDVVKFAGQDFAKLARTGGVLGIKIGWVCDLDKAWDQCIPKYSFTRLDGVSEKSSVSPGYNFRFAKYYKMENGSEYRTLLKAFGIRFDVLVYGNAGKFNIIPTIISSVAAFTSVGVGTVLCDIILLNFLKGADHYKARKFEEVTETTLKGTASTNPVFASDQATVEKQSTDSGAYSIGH
Description: Membrane current was recorded by employing HEKA EPC-10 patch clamp amplifier and PATCHMASTER acquisition system. The primary cells of rat DRG were transferred to an about 1 ml bath embedded in an inverted microscope platform, and an extracellular fluid (2 mM CaCl2, 1 mM MgCl2, […] KCl, 155 mM NaCl, 12 mM glucose and 10 mM HEPES (pH=7.4)) was perfused by using a gravitational perfusion system. The P2X3-mediated current of a single cell was recorded in a whole cell recording mode. After formation of a gigaseal and rapture of the membrane, clamping potential was set at −60 mV. 30 μM a,b-Me ATP (also known as “α,β-meATP”) was perfused for 5 seconds, and the P2X3-mediated current induced at this point was taken as a control current. The cells were then treated with a solution of compound 66 at a specific concentration (prepared with the extracellular fluid) for 5 minutes. The solution of compound 66 at this concentration and 30 μM a,b-Me ATP were co-applied to induce a cell current (see FIG. 6 for the effect of the compound on the current), and an inhibition rate relative to the control current was calculated according to the following formula:
as §1, §2

Row | pIC50 (P2X3 [1]) | pIC50 (P2X3 [3]) | SMILES | antitussive effect (number of coughs in 10 minutes) [2]
1 | 7.58 | 7.55 | C#Cc1cc(Oc2cnc(N)nc2N)c(C(C)C)cn1 [Compound 66] | significant antitussive effect, which was better than that of the clinical control compound
2 |  |  | CNc1cc(Oc2cnc(N)nc2N)c(C(C)C)cn1 [Compound 22] | significant antitussive effect, which was better than that of the clinical control compound
